# Bridge positions count the residues as written; N and C are the ends. Square brackets hold non-standard residues; d marks the D form. Peptide text beside a SMILES is read from it. R8 = C=CCCCCCC[C@@](C)(N)C(=O)O; R5 = C=CCCC[C@@](C)(N)C(=O)O; S5 = C=CCCC[C@](C)(N)C(=O)O; Nle = CCCC[C@H](N)C(=O)O
# System: HRE-bla ME-180 cells
# Assay: Reporter gene assay (HRE-bla ME-180 HIF reporter, GeneBLAzer)
# Format: cell-based, human
# Details: for EC50: 24 hour normoxia
# Outline: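 A FRET β-lactamase readout of HIF transcription was used. After compound treatment in 0.3% DMSO/media under normoxic conditions, 20 μl of 6× LiveBLAzer-FRET B/G (CCF4-AM) substrate was added. Plates sat 3 hr at room temperature in the dark and were read at 409 Ex/460Em and 409Ex/530Em on a Synergy 2. Inhibition was compared against DMSO vehicle controls, with chetomin as positive control.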
Structure (SMILES),18 h Avg % max inhibition at top conc (HIF Rptr-24 hrs normoxia) (μM),EC50 [µM]
CCCC[C@H](NC(=O)[C@H](CC(C)C)NC(=O)[C@@H](NC(=O)[C@H](CCC(=O)O)NC(=O)[C@H](CCC(=O)O)NC(=O)[C@H](CC(=O)O)NC(=O)[C@@H](NC(=O)[C@H](Cc1ccccc1)NC(C)=O)[C@@H](C)CC)C(C)C)C(=O)N[C@@]1(C)CCCC=CCCC[C@@](C)(C(=O)N[C@@H](CCCC)C(=O)N[C@@H](C)C(=O)N[C@@H](CC(C)C)C(=O)N[C@@H](CC(=O)O)C(=O)N[C@@H](CCCNC(=N)N)C(=O)N[C@H](C(N)=O)[C@@H](C)CC)NC(=O)[C@H]([C@@H](C)CC)NC(=O)[C@H](CO)NC(=O)[C@H](CC(C)C)NC1=O [SP-52] (Ac-FIDEEVL[Nle][S5]LSI[S5][Nle]ALDRI-NH2; staple 9-13),++++ (≥50: ++++),15 to 30
CC[C@H](C)[C@H](NC(=O)[C@H](Cc1ccccc1)NC(C)=O)C(=O)N[C@@H](CC(=O)O)C(=O)N[C@@H](CCC(=O)O)C(=O)N[C@@H](CCC(=O)O)C(=O)N[C@H](C(=O)N[C@]1(C)CCCCCCC=CCCC[C@@](C)(C(=O)NCC(=O)N[C@@H](CC(C)C)C(=O)N[C@@H](CC(=O)O)C(=O)N[C@@H](CCCNC(=N)N)C(=O)N[C@H](C(=O)N[C@@H](CCCCN)C(=O)N[C@@H](CCC(=O)O)C(=O)N[C@@H](CC(C)C)C(=O)N2CCC[C@H]2C(=O)N[C@@H](CCC(=O)O)C(=O)N[C@@H](CC(C)C)C(=O)N[C@@H](Cc2c[nH]c3ccccc23)C(=O)N[C@@H](CC(C)C)C(N)=O)[C@@H](C)CC)NC(=O)[C@H](CCC(=O)O)NC(=O)[C@H]([C@@H](C)CC)NC(=O)[C@H](C(C)C)NC(=O)[C@H](CC(C)C)NC(=O)[C@H](CO)NC(=O)[C@H](CCSC)NC1=O)C(C)C [SP-84] (Ac-FIDEEV[R8]MSLVIE[S5]GLDRIKELPELWL-NH2; staple 7-14),+ (<10: +),> 30
CCCC[C@H](NC(=O)[C@H](CC(C)C)NC(=O)[C@@H](NC(=O)[C@H](CCC(=O)O)NC(=O)[C@H](CCC(=O)O)NC(=O)[C@H](CC(=O)O)NC(=O)[C@@H](NC(=O)[C@H](Cc1ccccc1)NC(C)=O)[C@@H](C)CC)C(C)C)C(=O)N[C@@]1(C)CCCC=CCCC[C@@](C)(C(=O)N[C@@H](CCC(=O)O)C(=O)N[C@@H](C)C(=O)N[C@@H](CC(C)C)C(=O)N[C@@H](CC(=O)O)C(=O)N[C@@H](CCCNC(=N)N)C(=O)N[C@H](C(N)=O)[C@@H](C)CC)NC(=O)[C@H]([C@@H](C)CC)NC(=O)[C@H](C(C)C)NC(=O)[C@H](CC(C)C)NC1=O [SP-38] (Ac-FIDEEVL[Nle][S5]LVI[S5]EALDRI-NH2; staple 9-13),++++ (≥50: ++++),15 to 30
CCCC[C@H](NC(=O)[C@H](CC(C)C)NC(=O)[C@@H](NC(=O)[C@H](CCC(=O)O)NC(=O)[C@H](CCC(=O)O)NC(=O)[C@H](CC(=O)O)NC(=O)[C@@H](NC(=O)[C@H](Cc1ccccc1)NC(C)=O)[C@@H](C)CC)C(C)C)C(=O)N[C@@]1(C)CCCC=CCCC[C@@](C)(C(=O)N[C@@H](CCCC)C(=O)NCC(=O)N[C@@H](CC(C)C)C(=O)N[C@@H](CC(=O)O)C(=O)N[C@@H](CCCNC(=N)N)C(=O)N[C@H](C(N)=O)[C@@H](C)CC)NC(=O)[C@H]([C@@H](C)CC)NC(=O)[C@H](C(C)C)NC(=O)[C@H](CC(C)C)NC1=O [SP-21] (Ac-FIDEEVL[Nle][S5]LVI[S5][Nle]GLDRI-NH2; staple 9-13),++++ (≥50: ++++),5 to 15
CCCC[C@H](NC(=O)[C@H](CC(C)C)NC(=O)[C@@H](NC(=O)[C@H](CCC(=O)O)NC(=O)[C@H](CCC(=O)O)NC(=O)[C@H](CC(=O)O)NC(=O)[C@@H](NC(=O)[C@H](Cc1ccccc1)NC(C)=O)[C@@H](C)CC)C(C)C)C(=O)N[C@]1(C)CCCC=CCCC[C@](C)(C(=O)N[C@@H](CCCC)C(=O)N[C@@H](C)C(=O)N[C@@H](CC(C)C)C(=O)N[C@@H](CC(=O)O)C(=O)N[C@@H](CCCNC(=N)N)C(=O)N[C@H](C(N)=O)[C@@H](C)CC)NC(=O)[C@H]([C@@H](C)CC)NC(=O)[C@H](C(C)C)NC(=O)[C@H](CC(C)C)NC1=O [SP-296] (Ac-FIDEEVL[Nle][R5]LVI[R5][Nle]ALDRI-NH2; staple 9-13),++++ (≥50: ++++),≤ 5
CCCC[C@H](NC(=O)[C@H](CC(C)C)NC(=O)[C@@H](NC(=O)[C@H](CCC(=O)O)NC(=O)[C@H](C)NC(=O)[C@H](CC(=O)O)NC(=O)[C@@H](NC(=O)[C@H](Cc1ccccc1)NC(C)=O)[C@@H](C)CC)C(C)C)C(=O)N[C@@]1(C)CCCC=CCCC[C@@](C)(C(=O)N[C@@H](CCCC)C(=O)N[C@@H](C)C(=O)N[C@@H](CC(C)C)C(=O)N[C@@H](CC(=O)O)C(=O)N[C@@H](CCCNC(=N)N)C(=O)N[C@H](C(N)=O)[C@@H](C)CC)NC(=O)[C@H]([C@@H](C)CC)NC(=O)[C@H](C(C)C)NC(=O)[C@H](CC(C)C)NC1=O [SP-12] (Ac-FIDAEVL[Nle][S5]LVI[S5][Nle]ALDRI-NH2; staple 9-13),++++ (≥50: ++++),5 to 15
CCCC[C@H](NC(=O)[C@H](CC(C)C)NC(=O)[C@@H](NC(=O)[C@H](CCC(=O)O)NC(=O)[C@H](CCC(=O)O)NC(=O)[C@H](CC(=O)O)NC(=O)[C@@H](NC(=O)[C@H](Cc1ccccc1)NC(C)=O)[C@@H](C)CC)C(C)C)C(=O)N[C@@]1(C)CCCC=CCCC[C@@](C)(C(=O)N[C@@H](CCCC)C(=O)N[C@@H](C)C(=O)N[C@@H](CC(C)C)C(=O)N[C@@H](CC(=O)O)C(=O)N[C@@H](CCCNC(=N)N)C(=O)N[C@H](C(N)=O)[C@@H](C)CC)NC(=O)[C@H]([C@@H](C)CC)NC(=O)[C@H](C)NC(=O)[C@H](CC(C)C)NC1=O [SP-18] (Ac-FIDEEVL[Nle][S5]LAI[S5][Nle]ALDRI-NH2; staple 9-13),++++ (≥50: ++++),5 to 15
CC[C@H](C)[C@H](NC(=O)[C@H](Cc1ccccc1)NC(C)=O)C(=O)N[C@@H](CC(=O)O)C(=O)N[C@@H](CCC(=O)O)C(=O)N[C@@H](CCC(=O)O)C(=O)N[C@H](C(=O)N[C@@H](CC(C)C)C(=O)N[C@@H](CCSC)C(=O)N[C@@]1(C)CCCC=CCCC[C@@](C)(C(=O)N[C@@H](CCSC)C(=O)N[C@@H](C)C(=O)N[C@@H](CC(C)C)C(=O)N[C@@H](CC(=O)O)C(=O)N[C@@H](CCCNC(=N)N)C(=O)N[C@H](C(=O)N[C@@H](CCCCN)C(=O)N[C@@H](CCC(=O)O)C(=O)N[C@@H](CC(C)C)C(=O)N2CCC[C@H]2C(=O)N[C@@H](CCC(=O)O)C(=O)N[C@@H](CC(C)C)C(=O)N[C@@H](Cc2c[nH]c3ccccc23)C(=O)N[C@@H](CC(C)C)C(N)=O)[C@@H](C)CC)NC(=O)[C@H]([C@@H](C)CC)NC(=O)[C@H](C(C)C)NC(=O)[C@H](CC(C)C)NC1=O)C(C)C [SP-3] (Ac-FIDEEVLM[S5]LVI[S5]MALDRIKELPELWL-NH2; staple 9-13),+++ (≤25 but <50: +++),> 30
CCCC[C@H](NC(=O)[C@]1(C)CCCC=CCCC[C@](C)(NC(=O)[C@H](CO)NC(=O)[C@H](CC(C)C)NC(=O)[C@@H](NC(=O)[C@H](CCC(=O)O)NC(=O)[C@H](CCC(=O)O)NC(=O)[C@H](CC(=O)O)NC(=O)[C@@H](NC(=O)[C@H](Cc2ccccc2)NC(C)=O)[C@@H](C)CC)C(C)C)C(=O)N[C@@H](CC(C)C)C(=O)N[C@@H](C(C)C)C(=O)N[C@@H]([C@@H](C)CC)C(=O)N1)C(=O)N[C@@H](C)C(=O)N[C@@H](CC(C)C)C(=O)N[C@@H](CC(=O)O)C(=O)N[C@@H](CCCNC(=N)N)C(=O)N[C@H](C(N)=O)[C@@H](C)CC [SP-50] (Ac-FIDEEVLS[S5]LVI[S5][Nle]ALDRI-NH2; staple 9-13),++++ (≥50: ++++),≤ 5
CCCC[C@H](NC(=O)[C@H](CC(C)C)NC(=O)[C@@H](NC(=O)[C@H](CCC(=O)O)NC(=O)[C@H](CCC(=O)O)NC(=O)[C@H](CC(=O)O)NC(=O)[C@@H](NC(=O)[C@H](Cc1ccccc1)NC(C)=O)[C@@H](C)CC)C(C)C)C(=O)N[C@@]1(C)CCCC=CCCC[C@@](C)(C(=O)N[C@@H](CCCC)C(=O)N[C@@H](C)C(=O)N[C@@H](CC(C)C)C(=O)N[C@@H](CC(=O)O)C(=O)N[C@@H](CCCNC(=N)N)C(N)=O)NC(=O)[C@H]([C@@H](C)CC)NC(=O)[C@H](C(C)C)NC(=O)[C@H](CC(C)C)NC1=O [SP-27] (Ac-FIDEEVL[Nle][S5]LVI[S5][Nle]ALDR-NH2; staple 9-13),++++ (≥50: ++++),5 to 15
CC[C@H](C)[C@H](NC(=O)[C@H](CCCNC(=N)N)NC(=O)[C@H](CC(=O)O)NC(=O)[C@H](CC(C)C)NC(=O)CNC(=O)[C@H](CCSC)NC(=O)[C@]1(C)CCCC=CCCC[C@](C)(NC(=O)[C@H](CCSC)NC(=O)[C@H](CC(C)C)NC(=O)[C@@H](NC(=O)[C@H](CCC(=O)O)NC(C)=O)C(C)C)C(=O)N[C@@H](CC(C)C)C(=O)N[C@@H](C(C)C)C(=O)N[C@@H]([C@@H](C)CC)C(=O)N1)C(=O)N[C@@H](CCCCN)C(=O)N[C@@H](CCC(=O)O)C(=O)N[C@@H](CC(C)C)C(=O)N1CCC[C@H]1C(=O)N[C@@H](CCC(=O)O)C(=O)N[C@@H](CC(C)C)C(=O)N[C@@H](Cc1c[nH]c2ccccc12)C(=O)N[C@@H](CC(C)C)C(N)=O [SP-89] (Ac-EVLM[S5]LVI[S5]MGLDRIKELPELWL-NH2; staple 5-9),+++ (≤25 but <50: +++),5 to 15
CCCC[C@H](NC(=O)[C@H](CC(C)C)NC(=O)[C@@H](NC(=O)[C@H](CCC(=O)O)NC(=O)[C@H](CCC(=O)O)NC(=O)[C@H](CC(=O)O)NC(=O)[C@H](CO)NC(=O)[C@H](Cc1ccccc1)NC(C)=O)C(C)C)C(=O)N[C@@]1(C)CCCC=CCCC[C@@](C)(C(=O)N[C@@H](CCCC)C(=O)N[C@@H](C)C(=O)N[C@@H](CC(C)C)C(=O)N[C@@H](CC(=O)O)C(=O)N[C@@H](CCCNC(=N)N)C(=O)N[C@H](C(N)=O)[C@@H](C)CC)NC(=O)[C@H]([C@@H](C)CC)NC(=O)[C@H](C(C)C)NC(=O)[C@H](CC(C)C)NC1=O [SP-45] (Ac-FSDEEVL[Nle][S5]LVI[S5][Nle]ALDRI-NH2; staple 9-13),++ (≤10 but <25: ++),> 30
